System: human platelets
Assay: inhibition of aggregation of human platelets ex vivo
Format: cell-based
Settings: Platelet, read-out: IC50, inhibit aggregation of human platelets ex vivo

| IC50 [nM] | Structure (SMILES) |
| --- | --- |
| 1 to 10 | CC(C)(C)NC(=O)NS(=O)(=O)c1cc(C#N)ccc1Oc1cccc(-c2ccc(OC(F)(F)F)cc2)c1 [NTP43] |
| 1 to 10 | COc1ccc(-c2cccc(Oc3ccc([N+](=O)[O-])cc3S(=O)(=O)NC(=O)NC(C)(C)C)c2)cc1 [TP20] |
